Laboratory results taken from PubChem BioAssay (NCI).
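Cultured in 96-well plates, cells were exposed to test compound for 48 hours across five concentrations. TGI denotes the concentration required for complete inhibition of growth.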

Assays:
Experiment in all cases: DTP human tumour cell line panel, 48 h
NCI-H460 lung = test system: NCI-H460 lung
DMS 273 small cell lung = test system: DMS 273 small cell lung
MALME-3M melanoma = test system: MALME-3M melanoma
OVCAR-5 ovarian = test system: OVCAR-5 ovarian
MOLT-4 leukemia = test system: MOLT-4 leukemia
SNB-75 CNS = test system: SNB-75 CNS
DLD-1 colon = test system: DLD-1 colon
XF 498 CNS = test system: XF 498 CNS
RPMI-8226 leukemia = test system: RPMI-8226 leukemia
SK-OV-3 ovarian = test system: SK-OV-3 ovarian
M19-MEL melanoma = test system: M19-MEL melanoma
ACHN renal = test system: ACHN renal
SF-295 CNS = test system: SF-295 CNS
NCI-H226 lung = test system: NCI-H226 lung
U251 CNS = test system: U251 CNS
IGROV1 ovarian = test system: IGROV1 ovarian
HT29 colon = test system: HT29 colon
SK-MEL-28 melanoma = test system: SK-MEL-28 melanoma
SN12C renal = test system: SN12C renal
UACC-62 melanoma = test system: UACC-62 melanoma
KM20L2 colon = test system: KM20L2 colon
EKVX NSCLC = test system: EKVX NSCLC
LXFL 529 NSCLC = test system: LXFL 529 NSCLC
NCI-H23 lung = test system: NCI-H23 lung
DMS 114 small cell lung = test system: DMS 114 small cell lung
TK-10 renal = test system: TK-10 renal
M14 melanoma = test system: M14 melanoma
SR leukemia = test system: SR leukemia
HCT-116 colon = test system: HCT-116 colon
HOP-62 NSCLC = test system: HOP-62 NSCLC
786-0 renal = test system: 786-0 renal
SK-MEL-2 melanoma = test system: SK-MEL-2 melanoma
A549 NSCLC = test system: A549 NSCLC
SW-620 colon = test system: SW-620 colon
KM12 colon = test system: KM12 colon
RXF 393 renal = test system: RXF 393 renal
HOP-18 NSCLC = test system: HOP-18 NSCLC
HCC-2998 colon = test system: HCC-2998 colon
SF-539 CNS = test system: SF-539 CNS
COLO 205 colon = test system: COLO 205 colon
LOX IMVI melanoma = test system: LOX IMVI melanoma
HCT-15 colon = test system: HCT-15 colon
SNB-78 CNS = test system: SNB-78 CNS
HOP-92 NSCLC = test system: HOP-92 NSCLC
UO-31 renal = test system: UO-31 renal
UACC-257 melanoma = test system: UACC-257 melanoma
NCI-H522 lung = test system: NCI-H522 lung
OVCAR-3 ovarian = test system: OVCAR-3 ovarian
SF-268 CNS = test system: SF-268 CNS
SK-MEL-5 melanoma = test system: SK-MEL-5 melanoma
OVCAR-8 ovarian = test system: OVCAR-8 ovarian
CCRF-CEM leukemia = test system: CCRF-CEM leukemia
K-562 leukemia = test system: K-562 leukemia
A498 renal = test system: A498 renal
CAKI-1 renal = test system: CAKI-1 renal
HL-60(TB) leukemia = test system: HL-60(TB) leukemia
SNB-19 CNS = test system: SNB-19 CNS
OVCAR-4 ovarian = test system: OVCAR-4 ovarian

Question: Which results are given for CC[C@H]1CC(=O)c2c(cc3c(c2O)C(=O)c2ccccc2C3=O)[C@@]1(C#N)C(=O)OC(C)(C)C?
Answer: TGI (NCI-H460 lung): 7.54 µM; TGI (DMS 273 small cell lung): 5.97 µM; TGI (MALME-3M melanoma): 17.8 µM; TGI (OVCAR-5 ovarian): 46.5 µM; TGI (MOLT-4 leukemia): 8.62 µM; TGI (SNB-75 CNS): 32 µM; TGI (DLD-1 colon): 7.08 µM; TGI (XF 498 CNS): 7.67 µM; TGI (RPMI-8226 leukemia): > 100 µM; TGI (SK-OV-3 ovarian): > 100 µM; TGI (M19-MEL melanoma): 15.8 µM; TGI (ACHN renal): 31.7 µM; TGI (SF-295 CNS): 20.9 µM; TGI (NCI-H226 lung): 8.82 µM; TGI (U251 CNS): 53.3 µM; TGI (IGROV1 ovarian): 7.11 µM; TGI (HT29 colon): 10.1 µM; TGI (SK-MEL-28 melanoma): 23 µM; TGI (SN12C renal): 12.7 µM; TGI (UACC-62 melanoma): 50.6 µM; TGI (KM20L2 colon): 47.4 µM; TGI (EKVX NSCLC): 36.2 µM; TGI (LXFL 529 NSCLC): > 100 µM; TGI (NCI-H23 lung): 11.2 µM; TGI (DMS 114 small cell lung): 7.97 µM; TGI (TK-10 renal): 37.5 µM; TGI (M14 melanoma): 14.5 µM; TGI (SR leukemia): > 100 µM; TGI (HCT-116 colon): 8.15 µM; TGI (HOP-62 NSCLC): 5.82 µM; TGI (786-0 renal): 46.4 µM; TGI (SK-MEL-2 melanoma): 5.85 µM; TGI (A549 NSCLC): > 100 µM; TGI (SW-620 colon): 13.4 µM; TGI (KM12 colon): 7.77 µM; TGI (RXF 393 renal): 23.1 µM; TGI (HOP-18 NSCLC): 14.3 µM; TGI (HCC-2998 colon): 17.9 µM; TGI (SF-539 CNS): 14.3 µM; TGI (COLO 205 colon): 3.58 µM; TGI (LOX IMVI melanoma): 36.8 µM; TGI (HCT-15 colon): 5.07 µM; TGI (SNB-78 CNS): > 100 µM; TGI (HOP-92 NSCLC): > 100 µM; TGI (UO-31 renal): 8.6 µM; TGI (UACC-257 melanoma): 5.55 µM; TGI (NCI-H522 lung): 6.74 µM; TGI (OVCAR-3 ovarian): 11 µM; TGI (SF-268 CNS): > 100 µM; TGI (SK-MEL-5 melanoma): 3.48 µM; TGI (OVCAR-8 ovarian): 15 µM

Question: With COc1cc(/C=C2\CCC(C)(CN(C)C)C2=O)cc(OC)c1OC (centres undefined) as the molecule, how does the TGI (NCI-H460 lung) read?
Answer: The TGI was > 100 µM.

Question: What about the TGI (DMS 273 small cell lung) of the same molecule?
Answer: Its TGI is > 100 µM.

Question: And the TGI (MALME-3M melanoma)?
Answer: The TGI was > 100 µM.

Question: And the TGI (OVCAR-5 ovarian)?
Answer: Its TGI is > 100 µM.

Question: And the TGI (CCRF-CEM leukemia)?
Answer: Its TGI is > 100 µM.

Question: And the TGI (MOLT-4 leukemia)?
Answer: The TGI was > 100 µM.

Question: And the TGI (SNB-75 CNS)?
Answer: The TGI was > 100 µM.

Question: What about the TGI (DLD-1 colon) of the same molecule?
Answer: Its TGI is > 100 µM.

Question: And the TGI (XF 498 CNS)?
Answer: Its TGI is > 100 µM.

Question: And the TGI (RPMI-8226 leukemia)?
Answer: The TGI was > 72.9 µM.

Question: And the TGI (SK-OV-3 ovarian)?
Answer: The TGI was > 100 µM.

Question: And the TGI (M19-MEL melanoma)?
Answer: The TGI was > 100 µM.

Question: And the TGI (ACHN renal)?
Answer: The TGI was > 100 µM.

Question: What about the TGI (SF-295 CNS) of the same molecule?
Answer: The TGI was > 100 µM.

Question: And the TGI (K-562 leukemia)?
Answer: The TGI was > 100 µM.

Question: And the TGI (NCI-H226 lung)?
Answer: The TGI was > 100 µM.

Question: What about the TGI (U251 CNS) of the same molecule?
Answer: The TGI was > 100 µM.

Question: What about the TGI (IGROV1 ovarian) of the same molecule?
Answer: Its TGI is > 100 µM.

Question: What about the TGI (A498 renal) of the same molecule?
Answer: The TGI was > 100 µM.

Question: What about the TGI (CAKI-1 renal) of the same molecule?
Answer: The TGI was > 100 µM.

Question: And the TGI (HT29 colon)?
Answer: The TGI was > 100 µM.

Question: What about the TGI (SK-MEL-28 melanoma) of the same molecule?
Answer: The TGI was > 100 µM.

Question: And the TGI (SN12C renal)?
Answer: The TGI was > 100 µM.

Question: And the TGI (UACC-62 melanoma)?
Answer: Its TGI is > 100 µM.

Question: And the TGI (KM20L2 colon)?
Answer: Its TGI is > 100 µM.

Question: And the TGI (HL-60(TB) leukemia)?
Answer: Its TGI is > 67.2 µM.

Question: And the TGI (EKVX NSCLC)?
Answer: The TGI was > 88.3 µM.

Question: What about the TGI (LXFL 529 NSCLC) of the same molecule?
Answer: The TGI was > 100 µM.

Question: And the TGI (NCI-H23 lung)?
Answer: The TGI was > 100 µM.

Question: And the TGI (DMS 114 small cell lung)?
Answer: The TGI was > 100 µM.

Question: And the TGI (TK-10 renal)?
Answer: Its TGI is > 100 µM.

Question: And the TGI (M14 melanoma)?
Answer: The TGI was > 100 µM.

Question: And the TGI (SR leukemia)?
Answer: The TGI was > 100 µM.

Question: And the TGI (HCT-116 colon)?
Answer: The TGI was > 100 µM.

Question: And the TGI (SNB-19 CNS)?
Answer: The TGI was > 100 µM.

Question: What about the TGI (HOP-62 NSCLC) of the same molecule?
Answer: Its TGI is > 100 µM.

Question: What about the TGI (786-0 renal) of the same molecule?
Answer: Its TGI is > 100 µM.

Question: And the TGI (SK-MEL-2 melanoma)?
Answer: The TGI was > 100 µM.

Question: What about the TGI (A549 NSCLC) of the same molecule?
Answer: The TGI was > 100 µM.

Question: What about the TGI (SW-620 colon) of the same molecule?
Answer: The TGI was > 100 µM.

Question: What about the TGI (KM12 colon) of the same molecule?
Answer: The TGI was > 100 µM.

Question: And the TGI (RXF 393 renal)?
Answer: The TGI was > 100 µM.

Question: And the TGI (HOP-18 NSCLC)?
Answer: The TGI was > 100 µM.

Question: What about the TGI (HCC-2998 colon) of the same molecule?
Answer: Its TGI is > 100 µM.

Question: What about the TGI (SF-539 CNS) of the same molecule?
Answer: The TGI was > 100 µM.

Question: What about the TGI (COLO 205 colon) of the same molecule?
Answer: Its TGI is > 100 µM.

Question: And the TGI (LOX IMVI melanoma)?
Answer: Its TGI is > 100 µM.

Question: And the TGI (HCT-15 colon)?
Answer: The TGI was > 100 µM.

Question: And the TGI (SNB-78 CNS)?
Answer: Its TGI is 99.4 µM.

Question: What about the TGI (HOP-92 NSCLC) of the same molecule?
Answer: The TGI was > 100 µM.

Question: What about the TGI (UO-31 renal) of the same molecule?
Answer: The TGI was > 100 µM.

Question: What about the TGI (OVCAR-4 ovarian) of the same molecule?
Answer: Its TGI is > 100 µM.

Question: What about the TGI (UACC-257 melanoma) of the same molecule?
Answer: The TGI was > 100 µM.

Question: And the TGI (NCI-H522 lung)?
Answer: The TGI was > 100 µM.

Question: And the TGI (OVCAR-3 ovarian)?
Answer: Its TGI is > 100 µM.

Question: And the TGI (SF-268 CNS)?
Answer: The TGI was > 100 µM.

Question: And the TGI (SK-MEL-5 melanoma)?
Answer: The TGI was > 100 µM.

Question: And the TGI (OVCAR-8 ovarian)?
Answer: The TGI was > 100 µM.
